# pEC50: −log10 of the molar value.
# Biological target: human mGluR4 (Homo sapiens (Human), UniProt Q14833)
# Assay: mGluR4 potentiation assay, CHO cells transfected with human mGluR4, Ca2+-sensitive dye, EC20 agonist
# Format: cell-based
# Settings: potentiation of mGluR4
# Procedure: The disclosed compounds and compositions can be evaluated for their ability to act as a potentiator of metabotropic glutamate receptor activity, in particular mGluR4 activity, by any suitable known methodology known in the art. For example, Chinese Hamster Ovary (CHO) cells transfected with human mGluR4 or HEK cells co-transfected with rat mGluR4 and the G-protein regulated Inwardly Rectifying Potassium channel (GIRK) were plated in clear bottom assay plates for assay in a Hamamatsu FDSS Fluorometric Plate Reader. The cells were loaded with either a Ca2+-sensitive fluorescent dye or the thallium responsive dye and the plates were washed and placed into a suitable kinetic plate reader. For human mGluR4 assays, a fluorescence baseline was established for 3-5 seconds, the disclosed compounds were then added to the cells, and the response in cells was measured. Approximately two and a half minutes later, a concentration of mGluR4 orthosteric agonist (e.g. glutamate or L-AP4) eliciting approximately 20% (EC20) of the maximal agonist response was added to the cells, and the response was measured. Two minutes later, a concentration of mGluR4 agonist (e.g. glutamate or L-AP4) eliciting 80% (EC80) of the maximal agonist response was added to the cells, and the response was measured. For rat mGluR4/GIRK experiments, a baseline was established for approximately five seconds, disclosed compounds were added, and either an EC20 or EC80 concentration of agonist was added approximately two and one half minutes later. Potentiation of the agonist response of mGluR4 by the disclosed compounds was observed as an increase in response to the EC20 concentration of agonist in the presence of compound compared to the response to agonist in the absence of compound. Similarly, antagonism of the agonist response of mGluR4 by the disclosed compounds was observed as a decrease in response to the EC80 concentration of agonist in the presence of compound compared to the response to agonist in the absence of compound.
# The above described assay operated in two modes. In the first mode, a range of concentrations of the disclosed compounds are added to cells, followed by a single fixed concentration of agonist. If the compound acts as a potentiatior, an EC50 value for potentiation and a maximum extent of potentiation by the compound at this concentration of agonist is determined by non-linear curve fitting. If the compound acts as a noncompetitive antagonist, an IC50 value is determined by non-linear curve fitting. In the second mode, several fixed concentrations of the disclosed compounds are added to various wells on a plate, followed by a range in concentrations of agonist for each concentration of disclosed compound. The EC50 values for the agonist at each concentration of compound are determined by non-linear curve fitting. A decrease in the EC50 value of the agonist with increasing concentrations of the sample compound (a leftward shift of the agonist concentration-response curve) is an indication of the degree of mGluR4 potentiation at a given concentration of the sample compound. A decrease in the maximal response of the agonist with increasing concentrations of the sample compounds, with or without a rightward shift in agonist potency, is an indication of the degree of noncompetitive antagonism at mGluR4. The second mode also indicates whether the sample compounds also affect the maximum response to mGluR4 to agonists.
# [1] = main compound table, species not given
# [2] = summary list repeated at the end of the table, species not stated
# Sequence of human mGluR4 (Q14833 33-912): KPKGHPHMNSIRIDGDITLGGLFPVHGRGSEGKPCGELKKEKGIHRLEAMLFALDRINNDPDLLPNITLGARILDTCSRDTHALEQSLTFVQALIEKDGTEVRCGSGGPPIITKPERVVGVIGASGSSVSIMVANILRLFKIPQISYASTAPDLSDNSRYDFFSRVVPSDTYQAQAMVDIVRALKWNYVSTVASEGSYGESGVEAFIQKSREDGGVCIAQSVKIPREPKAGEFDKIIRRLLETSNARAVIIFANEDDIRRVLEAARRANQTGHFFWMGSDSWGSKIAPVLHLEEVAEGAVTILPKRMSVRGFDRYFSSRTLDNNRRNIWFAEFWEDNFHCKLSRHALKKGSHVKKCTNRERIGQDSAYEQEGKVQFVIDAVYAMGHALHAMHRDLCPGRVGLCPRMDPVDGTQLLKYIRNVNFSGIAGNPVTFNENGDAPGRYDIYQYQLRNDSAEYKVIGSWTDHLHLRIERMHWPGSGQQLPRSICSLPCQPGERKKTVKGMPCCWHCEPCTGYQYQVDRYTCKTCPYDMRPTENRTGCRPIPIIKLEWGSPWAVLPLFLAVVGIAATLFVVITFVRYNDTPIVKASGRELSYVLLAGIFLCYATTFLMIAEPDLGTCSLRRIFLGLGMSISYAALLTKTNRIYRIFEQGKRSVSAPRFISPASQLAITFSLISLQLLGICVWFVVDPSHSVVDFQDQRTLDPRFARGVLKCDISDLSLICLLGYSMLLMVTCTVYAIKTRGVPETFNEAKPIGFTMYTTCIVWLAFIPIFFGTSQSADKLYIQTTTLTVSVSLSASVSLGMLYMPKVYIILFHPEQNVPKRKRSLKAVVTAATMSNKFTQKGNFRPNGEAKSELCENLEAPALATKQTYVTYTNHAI
Structure (SMILES),pEC50 [1],pEC50 [2]
"CCc1nsc2cc(Nc3n[nH]c4ncccc34)cnc12 [Example 42, 3-ethyl-N-(1H-pyrazolo[3,4-b]pyridin-3-yl)isothiazolo [4,5-b]pyridin-6-amine]",7.00,7.00
"c1cnc2c(Nc3ccc4c(-c5ccsc5)nsc4c3)n[nH]c2n1 [Example 46, N-(1H-pyrazolo[3,4-b]pyrazin-3-yl)-3-(thiophen-3-yl)benzo[d] isothiazol-6-amine]",6.84,6.84
"O=C(NC1CC(F)(F)C1)c1nsc2cc(Nc3n[nH]c4cccnc34)ccc12 [Example 4, 6-((1H-pyrazolo[4,3-b]pyridin-3-yl)amino)-N-(3,3-difluorocyclobutyl)benzo[d] isothiazole-3-carboxamide]",7.49,7.49
"CCc1nsc2cc(Nc3n[nH]c4cccnc34)cnc12 [Example 41, 3-ethyl-N-(1H-pyrazolo[4,3-b]pyridin-3-yl)isothiazolo [4,5-b]pyridin-6-amine]",7.42,7.42
"CN(Cc1nsc2cc(Nc3n[nH]c4ncccc34)cnc12)C1CC(F)(F)C1 [Example 53, 3-(((3,3-difluorocyclobutyl) (methyl)amino)methyl)-N-(1H-pyrazolo[3,4-b]pyridin-3-yl)isothiazolo[4,5-b]pyridin-6-amine]",6.25,6.25
"CCC(C)c1nsc2cc(Nc3n[nH]c4cccnc34)cnc12 (centres unmarked) [Example 40, 3-(sec-butyl)-N-(1H-pyrazolo[4,3-b]pyridin-3-yl)isothiazolo[4,5-b] pyridin-6-amine]",7.27,7.27

# Further lines, results first:
pEC50 [1],pEC50 [2],Structure (SMILES)
5.91,5.91,"FC(F)(F)c1nsc2cc(Nc3n[nH]c4ncccc34)ccc12 [Example 29, N-(1H-pyrazolo[3,4-b]pyridin-3-yl)-3-(trifluoromethyl)benzo[d] isothiazol-6-amine]"
7.30,7.30,"O=C(c1nsc2cc(Nc3n[nH]c4cccnc34)ccc12)N1CCC(C(F)(F)F)CC1 [Example 21, (6-((1H-pyrazolo [4,3-b]pyridin-3-yl)amino)benzo[d]isothiazol-3-yl) (4-(trifluoromethyl)piperidin-1-yl) methanone]"
6.52,6.52,"O=C(c1nsc2cc(Nc3n[nH]c4cccnc34)ccc12)N1CCOCC1 [Example 6, (6-((1H-pyrazolo [4,3-b]pyridin-3-yl)amino)benzo[d]isothiazol-3-yl)(morpholino) methanone]"
6.22,6.22,"O=C(c1nsc2cc(Nc3n[nH]c4cccnc34)ccc12)N1CCCOCC1 [Example 17, (6-((1H-pyrazolo[4,3-b]pyridin-3-yl)amino)benzo[d]isothiazol-3-yl)(1,4-oxazepan-4-yl)methanone]"
6.80,6.80,"Cc1nsc2cc(Nc3n[nH]c4cccnc34)cnc12 [Example 39, 3-methyl-N-(1H-pyrazolo [4,3-b]pyridin-3-yl)isothiazolo[4,5-b] pyridin-6-amine]"
6.67,6.67,"c1cnc2c(Nc3ccc4c(-c5ccsc5)nsc4c3)n[nH]c2c1 [Example 45, N-(1H-pyrazolo[4,3-b]pyiridn-3-yl)-3-(thiophen-3-yl)benzo[d] isothiazol-6-amine]"
6.65,6.65,"c1ccc(-c2nsc3cc(Nc4n[nH]c5cccnc45)ccc23)cc1 [Example 43, 3-phenyl-N-(1H-pyrazolo [4,3-b]pyridin-3-yl)benzo[d]isothiazol-6-amine]"
